Reference: PubChem BioAssay AID330 (DTP/NCI, 2004)
Several values for one entry are separate records, joined by “and”; a condition that tells them apart may be missing. Equal entries are not always repeated. Inconclusive results and toxic doses are left out.

Test system: P388 leukemia ip, CD2F1 mice, survival T/C
Test: NCI In Vivo Anticancer Drug Screen. Data for tumor model P388 Leukemia (intraperitoneal) in CD2F1 (CDF1) mice
Details: endpoint: median survival time, higher = longer survival
Outline: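 Mice carrying the transplanted tumor received test compound or vehicle. Survival was recorded in each group, and the value is the treated-group measurement divided by that of the vehicle-treated control group.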

[1] = dose: 50.0 mg/kg/injection, schedule: Q01DX005 (ip), vehicle: saline
[2] = dose: 50.0 mg/kg/injection, schedule: Q01DX009 (ip), vehicle: saline with Tween-80
[3] = dose: 100.0 mg/kg/injection, schedule: Q01DX009 (ip), vehicle: saline with Tween-80

Compound: CC(O)CCOCCCBr (stereo not given)
- T/C [1]: 100 % of control
- T/C (dose: 100.0 mg/kg/injection, schedule: Q01DX005 (ip), vehicle: saline): 102 % of control
- T/C (dose: 200.0 mg/kg/injection, schedule: Q01DX005 (ip), vehicle: saline): 102 % of control

Compound: Cc1nn(C)c2ccc3ccccc3c(=O)c12
- T/C (dose: 60.0 mg/kg/injection, schedule: Q01DX005 (ip), vehicle: Klucel (hydroxypropylcellulose) (HPC)): 101 % of control
- T/C (dose: 120.0 mg/kg/injection, schedule: Q01DX005 (ip), vehicle: Klucel (hydroxypropylcellulose) (HPC)): 102 % of control
- T/C (dose: 240.0 mg/kg/injection, schedule: Q01DX005 (ip), vehicle: Klucel (hydroxypropylcellulose) (HPC)): 105 % of control

Compound: [Cl][Sn]([Cl])([c]1ccccc1)[c]1ccccc1.c1ccc2nc(-c3ccc4ccccc4n3)ccc2c1
- T/C (dose: 7.5 mg/kg/injection, schedule: Q01DX005 (ip), vehicle: Klucel (hydroxypropylcellulose) (HPC)): 100 % of control and 106 % of control
- T/C (dose: 15.0 mg/kg/injection, schedule: Q01DX005 (ip), vehicle: Klucel (hydroxypropylcellulose) (HPC)): 100 % of control and 113 % of control
- T/C (dose: 30.0 mg/kg/injection, schedule: Q01DX005 (ip), vehicle: Klucel (hydroxypropylcellulose) (HPC)): 104 % of control and 117 % of control

Compound: CCOc1ccc(-c2nc3ccc(-c4nc5ccc(N6CCN(C)CC6)cc5[nH]4)cc3[nH]2)cc1
- T/C (dose: 3.12 mg/kg/injection, schedule: Q01DX005 (ip), vehicle: water): 159 % of control

Compound: N#Cc1ccc(NC(=O)Nc2nncs2)cc1
- T/C (dose: 12.5 mg/kg/injection, schedule: Q01DX009 (ip), vehicle: distilled water + Tween-80): 115 % of control and 116 % of control
- T/C (dose: 25.0 mg/kg/injection, schedule: Q01DX009 (ip), vehicle: distilled water + Tween-80): 122 % of control
- T/C (dose: 200.0 mg/kg/injection, schedule: Q01DX009 (ip), vehicle: distilled water + Tween-80): 104 % of control

Compound: CCC(Nc1nncs1)Nc1nncs1
- T/C (dose: 50.0 mg/kg/injection, schedule: Q01DX005 (ip), vehicle: Klucel (hydroxypropylcellulose) (HPC)): 100 % of control
- T/C (dose: 100.0 mg/kg/injection, schedule: Q01DX005 (ip), vehicle: Klucel (hydroxypropylcellulose) (HPC)): 99 % of control
- T/C (dose: 200.0 mg/kg/injection, schedule: Q01DX005 (ip), vehicle: Klucel (hydroxypropylcellulose) (HPC)): 98 % of control

Compound: O=C(CBr)c1cccc(OC(=O)c2ccccc2)c1
- T/C (dose: 6.25 mg/kg/injection, schedule: Q01DX009 (ip), vehicle: saline with Tween-80): 108 % of control
- T/C (dose: 12.5 mg/kg/injection, schedule: Q01DX009 (ip), vehicle: saline with Tween-80): 108 % of control

Compound: NC(=O)c1nnn2c1nc(N)c1ccccc12
- T/C [2]: 90 % of control
- T/C [3]: 89 % of control
- T/C (dose: 200.0 mg/kg/injection, schedule: Q01DX009 (ip), vehicle: saline with Tween-80): 91 % of control

Compound: CNC(=O)c1cccc2ccc[n+](C)c12
- T/C (dose: 0.62 mg/kg/injection, schedule: Q04DX002 (ip), vehicle: saline): 107 % of control
- T/C (dose: 1.25 mg/kg/injection, schedule: Q04DX002 (ip), vehicle: saline): 109 % of control
- T/C (dose: 2.5 mg/kg/injection, schedule: Q04DX002 (ip), vehicle: saline): 108 % of control

Compound: OO.OO.[Cr+3].[NH-]CC[N-]CC[NH-]
- T/C [2]: 94 % of control
- T/C [3]: 99 % of control

Compound: CN(C)c1ccc2c(=O)c(C(=O)O)c[nH]c2c1
- T/C (dose: 6.25 mg/kg/injection, schedule: Q01DX005 (ip), vehicle: saline): 96 % of control
- T/C (dose: 12.5 mg/kg/injection, schedule: Q01DX005 (ip), vehicle: saline): 100 % of control
- T/C (dose: 25.0 mg/kg/injection, schedule: Q01DX005 (ip), vehicle: saline): 96 % of control
- T/C (dose: 25.0 mg/kg/injection, schedule: Q01DX009 (ip), vehicle: water): 99 % of control
- T/C [1]: 95 % of control
- T/C (dose: 50.0 mg/kg/injection, schedule: Q01DX009 (ip), vehicle: water): 101 % of control
- T/C (dose: 100.0 mg/kg/injection, schedule: Q01DX009 (ip), vehicle: water): 94 % of control
- T/C (dose: 200.0 mg/kg/injection, schedule: Q01DX009 (ip), vehicle: water): 89 % of control
- T/C (dose: 400.0 mg/kg/injection, schedule: Q01DX009 (ip), vehicle: water): 93 % of control

Compound: CCCC[CH2][Pb]([CH2]CCCC)([CH2]CCCC)[O]C(C)=O
- T/C (dose: 0.25 mg/kg/injection, schedule: Q01DX009 (ip), vehicle: saline sonified): 104 % of control
- T/C (dose: 0.5 mg/kg/injection, schedule: Q01DX009 (ip), vehicle: saline sonified): 109 % of control
- T/C (dose: 1.0 mg/kg/injection, schedule: Q01DX009 (ip), vehicle: saline sonified): 104 % of control

Compound: COC(=O)c1nc(=S)[nH]c(C(=O)OC)c1C(=O)c1ccc2ccccc2c1
- T/C (dose: 60.0 mg/kg/injection, schedule: Q01DX005 (ip), vehicle: Klucel + Tween-80): 94 % of control
- T/C (dose: 120.0 mg/kg/injection, schedule: Q01DX005 (ip), vehicle: Klucel + Tween-80): 95 % of control
- T/C (dose: 240.0 mg/kg/injection, schedule: Q01DX005 (ip), vehicle: Klucel + Tween-80): 95 % of control

Compound: CN(C)NC(=O)[S-].CN(C)NC(=O)[S-].[Ni]
- T/C (dose: 12.5 mg/kg/injection, schedule: Q01DX001 (ip), vehicle: saline with Tween-80): 103 % of control
- T/C (dose: 25.0 mg/kg/injection, schedule: Q01DX001 (ip), vehicle: saline with Tween-80): 111 % of control
- T/C (dose: 50.0 mg/kg/injection, schedule: Q01DX001 (ip), vehicle: saline with Tween-80): 106 % of control and 96 % of control
- T/C (dose: 100.0 mg/kg/injection, schedule: Q01DX001 (ip), vehicle: saline with Tween-80): 109 % of control
